From article PMC6100075, “Correlation between the Potency of Flavonoids on Mushroom Tyrosinase Inhibitory Activity and Melanin Synthesis in Melanocytes” (Molecules : A Journal of Synthetic Chemistry and Natural …, 2018)
Read-outs that look alike come from different tables or passages of the source.

Columns and labels:
B16-F10 melanoma cells = experiment: Total melanin content assay; format: cell-based, Mus musculus (mouse); settings: for activity at 15 µM / activity at 30 µM: read-out: % Melanin Content
Description: Mus musculus (mouse) melanoma cell line, B16-F10 (ATCC® Number: CRL-6475™, Manassas, VA, USA), was cultured in complete Dulbecco′s Modified Eagle′s Medium (DMEM, phenol red-free medium) containing 10% fetal bovine serum, 25 mM glucose, 4 mM L-glutamine, 1 mM sodium pyruvate, 10 μg/mL penicillin, and 10 μg/mL streptomycin, at 37 °C, with 5% carbon dioxide (CO2) in a humidified atmosphere.
The total melanin content, produced both extracellularly and intracellularly, was determined as follows: B16-F10 cells were seeded onto a 24-well plate at a concentration of 50,000 cells/0.5 mL/well and were incubated for 24 h, followed by treatment with either the test compounds or the control (0.5% DMSO), and then incubated for 72 h. For extraction, the total produced melanin and 0.5 mL of 2 N NaOH containing 20% DMSO were added directly to the cell culture medium, mixed by pipetting and then incubated at room temperature for 1 h. The lysed cell extract was centrifuged at 13,000× g for 5 min. Finally, the supernatant was transferred to a 96-well plate and the relative melanin content was detected at 405 nm using a micro plate reader. Kojic acid and oxyresveratrol were used as positive controls.

[1] = Cell viability assay (PrestoBlue resazurin); format: cell-based, Mus musculus (mouse); settings: mouse;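 also: mouse B16-F10 melanoma cells exposed to test samples for 72 h, with viability read as fluorescence of resorufin formed when living cells reduce PrestoBlue resazurin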
murine tyrosinase = molecular target: T1, murine tyrosinase (Mus musculus, UniProt P11344); experiment: Murine tyrosinase inhibitory assay (o-diphenolase activity, crude enzyme from B16-F10 melanoma cells); format: biochemical;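 also: crude tyrosinase taken from lysed, dialyzed B16-F10 cell extract, with the inhibition reaction incubated for 2 h at 37 °C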
T1 construct: The cells were lysed by vortex and incubated at 4 °C for 1 h to solubilize the tyrosinase enzyme; endogenous in cells; host or cells: B16-F10 melanoma cells (Triton X-100 lysate, dialyzed)
T1 sequence (P11344 19-533): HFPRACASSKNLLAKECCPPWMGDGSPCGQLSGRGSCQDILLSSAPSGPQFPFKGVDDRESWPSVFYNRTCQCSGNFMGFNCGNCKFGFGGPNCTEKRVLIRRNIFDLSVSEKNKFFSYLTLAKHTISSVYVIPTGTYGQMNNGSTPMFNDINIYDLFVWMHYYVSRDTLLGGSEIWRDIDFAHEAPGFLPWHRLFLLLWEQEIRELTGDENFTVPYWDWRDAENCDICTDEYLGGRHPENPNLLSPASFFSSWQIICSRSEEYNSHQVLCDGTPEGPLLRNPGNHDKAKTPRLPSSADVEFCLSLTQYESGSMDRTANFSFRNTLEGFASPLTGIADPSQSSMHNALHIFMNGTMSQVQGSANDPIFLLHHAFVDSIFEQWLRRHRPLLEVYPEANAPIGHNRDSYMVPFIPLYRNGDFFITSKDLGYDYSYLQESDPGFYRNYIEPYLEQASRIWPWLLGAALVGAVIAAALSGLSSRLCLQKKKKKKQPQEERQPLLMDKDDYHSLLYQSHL

mushroom tyrosinase = mushroom tyrosinase (Agaricus bisporus, UniProt C7FF04); experiment: Mushroom tyrosinase inhibitory assay (o-diphenolase activity, L-DOPA as substrate); format: biochemical; settings: for inhibition at 300 µM: read-out: Mushroom Tyrosinase Inhibition % Inhibition (at 300 μM); for inhibitory activity on mushroom tyrosinase (in words): o-diphenolase; for inhibition at 200 µM: read-out: Mushroom Tyrosinase Inhibition % Inhibition (at 200 μM);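 as to all read-outs here: enzyme and test sample preincubated 10 min at 25 °C in pH 6.8 phosphate buffer, 50% DMSO vehicle as control, enzyme-free mixture as blank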
[2] = Mus musculus, B16-F10, 15 μM, 72 h, relative to control
[3] = Mus musculus, B16-F10, 30 μM, 72 h, relative to control
[4] = B16-F10 melanoma cells, 15 μM, 72 h, relative to control, read-out: % Cell Viability
[5] = B16-F10 melanoma cells, 30 μM, 72 h, relative to control, read-out: % Cell Viability
[6] = 200 μM, L-DOPA substrate, read-out: Murine Tyrosinase Inhibition, % (at 200 μM), symbol
[7] = 200 μM, L-DOPA substrate, read-out: Murine Tyrosinase Inhibition, % (at 200 μM)

Chain of mushroom tyrosinase (G1K3P4 entry or part of it): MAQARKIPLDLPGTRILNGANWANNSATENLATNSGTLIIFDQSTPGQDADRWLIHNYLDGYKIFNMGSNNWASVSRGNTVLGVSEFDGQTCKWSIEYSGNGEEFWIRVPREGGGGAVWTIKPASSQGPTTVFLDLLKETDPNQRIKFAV
Chain of mushroom tyrosinase (C7FF04 2-392): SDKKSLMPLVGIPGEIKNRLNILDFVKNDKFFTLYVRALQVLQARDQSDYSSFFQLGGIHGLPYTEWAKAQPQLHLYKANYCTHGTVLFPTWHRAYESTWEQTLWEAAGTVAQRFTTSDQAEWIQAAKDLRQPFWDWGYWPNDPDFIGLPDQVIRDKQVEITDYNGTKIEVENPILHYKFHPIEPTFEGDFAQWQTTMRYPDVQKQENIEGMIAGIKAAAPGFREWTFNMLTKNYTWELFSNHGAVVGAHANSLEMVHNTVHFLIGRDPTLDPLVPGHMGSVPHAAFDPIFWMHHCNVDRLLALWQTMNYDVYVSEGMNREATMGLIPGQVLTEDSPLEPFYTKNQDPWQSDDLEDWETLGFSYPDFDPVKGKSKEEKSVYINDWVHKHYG

| SMILES | activity at 15 µM (B16-F10 melanoma cells; [2]) [%] | activity at 30 µM (B16-F10 melanoma cells; [3]) [%] | viability at 72 h, 15 µM [1, 4] [%] | viability at 72 h, 30 µM [1, 5] [%] | inhibition at 200 µM (murine tyrosinase; [6]) [%] | inhibition at 200 µM (mushroom tyrosinase; 200 μM, L-DOPA substrate) [%] | also measured |
| --- | --- | --- | --- | --- | --- | --- | --- |
| COc1ccc(-c2coc3cc(O)ccc3c2=O)cc1 [Compound 1, Formononetin] | 134 ± 2.7 | 155 ± 15.4 | 96 ± 3.3 | 92.8 ± 9.4 | < 0 | – | inhibition at 300 µM (mushroom tyrosinase; L-DOPA substrate): 10%; inhibitory activity on mushroom tyrosinase (in words) (mushroom tyrosinase; L-DOPA substrate): did not show inhibitory activity |
| COc1ccc(-c2coc3cc(O)cc(O)c3c2=O)cc1 [Compound 3, Biochanin A] | 165 ± 5.9 | 168 ± 5.1 | 103 ± 4.5 | 102 ± 4.8 | < 0 | 9.2 ± 0.4 | inhibitory activity on mushroom tyrosinase (in words) (mushroom tyrosinase; L-DOPA substrate): did not show inhibitory activity |
| COc1cc(-c2coc3cc(O)cc(O)c3c2=O)ccc1O [Compound 6, 3′-O-Methylorobol] | 170 ± 10.5 | 216 ± 15.7 | 107 ± 6.2 | 102 ± 2.7 | < 0 | 14.3 ± 1.1 | inhibitory activity on mushroom tyrosinase (in words) (mushroom tyrosinase; L-DOPA substrate): did not show inhibitory activity |
| COc1ccc(-c2coc3cc(O)cc(O)c3c2=O)c(OC)c1O [Compound 7, Khrinone C] | 107.6 ± 0.8 | 154 ± 9.9 | 93.3 ± 2 | 93.4 ± 2 | < 0 | – | inhibition at 300 µM (mushroom tyrosinase; L-DOPA substrate): 2%; inhibitory activity on mushroom tyrosinase (in words) (mushroom tyrosinase; L-DOPA substrate): did not show inhibitory activity |
| COc1c(O)cc2occ(-c3ccc(O)cc3)c(=O)c2c1O [Compound 8, Tectorigenin] | 128 ± 2.8 | 152 ± 4.7 | 130 ± 3.4 | 119 ± 1.3 | – | – | inhibition at 200 µM (murine tyrosinase; [7]): 10.2 ± 2.9%; behaviour as substrate of mushroom tyrosinase (in words) (mushroom tyrosinase; pre-incubation with enzyme in absence of L-DOPA, coloured product at 475 nm): chromogenic substrate analogs |
| COc1cc(O)c2c(=O)c(-c3ccc(O)cc3O)coc2c1 [Compound 9, Cajanin] | – | – | – | – | – | – | effect on melanin content (in words, Figure 1) (B16-F10 melanoma cells; 30 μM): inhibitory effect of melanogenesis; activity at 15 µM (B16-F10 melanoma cells; Mus musculus, B16-F10, 72 h): 65.8 ± 7.5%; activity at 30 µM (B16-F10 melanoma cells; Mus musculus, B16-F10, 72 h): 61.6 ± 8.9%; inhibition at 15 µM (B16-F10 melanoma cells; Mus musculus, B16-F10, read-out: inhibition of melanogenesis): 34%; viability at 72 h, 15 µM ([1]; 15 μM, 72 h, relative to control, read-out: % Cell Viability): 102 ± 6.6%; viability at 72 h, 30 µM ([1]; 30 μM, 72 h, relative to control, read-out: % Cell Viability): 107 ± 3.3%; inhibition at 200 µM (murine tyrosinase; read-out: Murine Tyrosinase Inhibition, % (at 200 μM)): 9.2 ± 1.5%; inhibition at 200 µM (mushroom tyrosinase): 65 ± 1.6% |
| COc1ccc([C@@H]2COc3cc(O)ccc3C2=O)cc1O [Compound 10, (3R)-7,3′-Dihydroxy-4′-methoxy-isoflavanone] | 95.1 ± 3 | 95.2 ± 2.7 | 94.9 ± 3.9 | 96.5 ± 3.9 | < 0 | – | inhibition at 200 µM (mushroom tyrosinase): 52.1 ± 0.4% |
| COc1cc2c(cc1C1COc3cc(O)ccc3C1=O)OCO2 (stereo not drawn) [Compound 11, Onogenin] | 134 ± 4.6 | 170 ± 15.4 | 100 ± 5 | 92 ± 2 | < 0 | – | inhibition at 300 µM (mushroom tyrosinase; L-DOPA substrate): 0% |
| COc1cc(OC)c(C2COc3cc(O)ccc3C2=O)cc1O (stereo not drawn) [Compound 12, Dalparvin] | 134 ± 9.7 | 200 ± 12.1 | 117 ± 8.9 | 99.7 ± 6.7 | < 0 | 31.6 ± 0.5 | – |
| COc1ccc(C2COc3cc(O)ccc3C2=O)c(O)c1OC (stereo not drawn) [Compound 13, Dalparvin B] | 102 ± 2.7 | 99.1 ± 2.3 | 82.3 ± 5.4 | 74.1 ± 6.4 | – | – | inhibition at 200 µM (murine tyrosinase; [7]): 9.8 ± 2.8%; inhibition at 500 µM (mushroom tyrosinase; L-DOPA substrate): 4% |
| COc1ccc(C2COc3cc(O)ccc3C2=O)c(OC)c1OC [Compound 15, (3R,S)-3′-O-Methylviolanone] | 143 ± 8.4 | 157 ± 11.5 | 74.2 ± 7.8 | 72.9 ± 6.2 | < 0 | – | inhibition at 300 µM (mushroom tyrosinase; L-DOPA substrate): 0% |
| COc1ccc(C2COc3cc(O)cc(O)c3C2=O)cc1O [Compound 16, (3R,S)-Kenusanone G] | 133 ± 5.1 | 158 ± 13.5 | 124 ± 1.7 | 102 ± 2.8 | < 0 | – | inhibition at 500 µM (mushroom tyrosinase; L-DOPA substrate): 0% |
| COc1ccc([C@H]2COc3cc(O)cc(O)c3C2=O)c(OC)c1O [Compound 17, (3S)-Secundiflorol H] | 118 ± 17.7 | 146 ± 6.1 | 109 ± 6.6 | 103 ± 4.1 | < 0 | 44 ± 3.7 | – |
| COc1cc(OC)c(C2COc3cc(O)cc(O)c3C2=O)cc1O (stereo not drawn) [Compound 18, Dalparvin A] | 132 ± 4.4 | 184 ± 10.6 | 105 ± 4.8 | 100 ± 7.1 | < 0 | – | inhibition at 500 µM (mushroom tyrosinase; L-DOPA substrate): 0% |
| COc1ccc([C@@H]2COc3cc(O)ccc3C2)c(O)c1 [Compound 19, (3R)-Vestitol] | 186.1 ± 1.6 | 232 ± 9.3 | 142 ± 3 | 120 ± 4.1 | – | 35.6 ± 2.2 | inhibition at 200 µM (murine tyrosinase; [7]): 12.4 ± 3.3% |
| COc1ccc([C@@H]2COc3cc(O)ccc3C2)c(OC)c1O [Compound 20, (3R)(+)-Mucronulatol] | 179 ± 15.9 | 264 ± 8.2 | 104 ± 6.9 | 102 ± 2.7 | – | 48.3 ± 1.6 | inhibition at 200 µM (murine tyrosinase; [7]): 12.8 ± 2.1% |
| O=c1cc(CO)occ1O [Kojic acid, reference compound] | 68.9 ± 5.2 | 74.2 ± 5.8 | 98.9 ± 4.7 | 99.6 ± 2.3 | – | – | – |
| Oc1cc(O)cc(/C=C/c2ccc(O)cc2O)c1 [Oxyresveratrol, reference compound] | 24.3 ± 1.1 | 28.4 ± 1.7 | – | – | – | – | viability at 72 h, 15 µM ([1]; % Cell Viability): 117 ± 2.2%; viability at 72 h, 30 µM ([1]; % Cell Viability): 118 ± 5.1%; inhibition at 200 µM (mushroom tyrosinase): 98.4 ± 1.1% |
